Our source for the IC50 values is ChEMBL document CHEMBL1134022, “2-Acylimino-3H-thiazoline derivatives: a novel template for platelet GPIIb/IIIa receptor antagonists” (Bioorg Med Chem Lett, 2001).

SMILES strings stand for the structures. pIC50: −log10 of the molar value.

Broadly, the pIC50 is the IC50 on a negative log10 scale, so that one unit is a factor of ten. A high value points to a low IC50.

Assay [1] has as its target T1, Integrin alpha-IIb/beta-3 (Homo sapiens, UniProt P05106+P08514). Description: Binding to [125I]- fibrinogen by washed platelet fibrinogen receptor.
Assay [2] concerns the target T1, Integrin alpha-IIb/beta-3. Description: Affinity for purified activated GPIIb/IIIa fibrinogen receptor in ELISA. It is filed as protein-complex assay.

T1 sequence (P05106 27-788 limits assumed): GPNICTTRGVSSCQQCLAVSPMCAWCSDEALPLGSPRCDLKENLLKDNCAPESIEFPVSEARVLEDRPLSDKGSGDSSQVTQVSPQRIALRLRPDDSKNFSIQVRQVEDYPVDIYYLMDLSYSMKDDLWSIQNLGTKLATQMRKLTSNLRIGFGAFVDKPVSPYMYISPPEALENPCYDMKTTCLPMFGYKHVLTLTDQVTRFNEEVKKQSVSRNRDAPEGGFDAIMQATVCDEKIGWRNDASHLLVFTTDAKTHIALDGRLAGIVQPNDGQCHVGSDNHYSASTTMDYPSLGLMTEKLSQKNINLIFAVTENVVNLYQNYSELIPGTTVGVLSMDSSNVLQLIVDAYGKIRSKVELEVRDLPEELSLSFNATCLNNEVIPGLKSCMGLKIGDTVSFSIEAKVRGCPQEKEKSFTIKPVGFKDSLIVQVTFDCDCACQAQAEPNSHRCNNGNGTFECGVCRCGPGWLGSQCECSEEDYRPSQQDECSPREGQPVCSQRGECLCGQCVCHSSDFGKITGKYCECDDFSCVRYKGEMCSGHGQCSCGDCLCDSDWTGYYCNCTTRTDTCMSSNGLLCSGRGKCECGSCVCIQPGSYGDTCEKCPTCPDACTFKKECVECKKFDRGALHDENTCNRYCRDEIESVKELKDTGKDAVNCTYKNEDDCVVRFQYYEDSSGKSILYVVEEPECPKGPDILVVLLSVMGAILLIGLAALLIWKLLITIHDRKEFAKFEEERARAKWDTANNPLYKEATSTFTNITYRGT
T1 sequence (P08514 32-887 limits assumed): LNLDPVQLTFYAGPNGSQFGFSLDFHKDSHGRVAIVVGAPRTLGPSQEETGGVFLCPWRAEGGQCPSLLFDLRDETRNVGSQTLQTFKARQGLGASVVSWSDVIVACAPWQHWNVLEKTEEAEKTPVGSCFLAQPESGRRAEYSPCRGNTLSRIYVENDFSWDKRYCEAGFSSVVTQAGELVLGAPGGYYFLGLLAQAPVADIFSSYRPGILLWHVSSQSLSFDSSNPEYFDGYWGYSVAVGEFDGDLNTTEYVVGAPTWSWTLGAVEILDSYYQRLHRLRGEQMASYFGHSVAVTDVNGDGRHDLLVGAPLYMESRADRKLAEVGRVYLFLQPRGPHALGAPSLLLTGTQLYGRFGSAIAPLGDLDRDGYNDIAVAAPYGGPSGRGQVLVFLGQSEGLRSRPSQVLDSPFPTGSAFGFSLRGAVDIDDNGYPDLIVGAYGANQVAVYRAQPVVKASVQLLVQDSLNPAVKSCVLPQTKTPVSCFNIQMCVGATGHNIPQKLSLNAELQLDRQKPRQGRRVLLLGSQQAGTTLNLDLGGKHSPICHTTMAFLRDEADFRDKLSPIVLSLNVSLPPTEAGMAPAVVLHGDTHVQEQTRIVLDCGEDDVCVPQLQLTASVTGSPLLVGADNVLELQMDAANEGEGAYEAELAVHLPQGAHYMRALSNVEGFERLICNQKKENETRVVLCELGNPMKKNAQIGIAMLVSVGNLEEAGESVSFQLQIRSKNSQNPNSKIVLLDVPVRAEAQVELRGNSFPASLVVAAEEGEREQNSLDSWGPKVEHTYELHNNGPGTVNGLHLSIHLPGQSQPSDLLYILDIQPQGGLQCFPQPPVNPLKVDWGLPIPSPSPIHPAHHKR
T1 sequence (P08514 891-1039 limits assumed): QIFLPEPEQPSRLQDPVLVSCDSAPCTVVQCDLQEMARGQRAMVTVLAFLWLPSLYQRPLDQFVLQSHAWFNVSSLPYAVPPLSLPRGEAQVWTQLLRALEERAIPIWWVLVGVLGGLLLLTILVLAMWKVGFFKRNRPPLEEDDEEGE

On to `CCCCn1c(C)c(C(=O)NCCC(=O)O)s/c1=N\C(=O)c1ccc(C(=N)N)cc1`, for which the pIC50 in assay [1] is 8.20; in assay [2] it was 9.89.

Turning to `Cc1c(C(=O)NCCC(=O)O)s/c(=N\C(=O)c2ccc(C(=N)N)cc2)n1Cc1ccccc1`, the pIC50 in assay [2] was 10.05.

Consider `Cc1c(C(=O)N(C)CCC(=O)O)s/c(=N\C(=O)c2ccc(C(=N)N)cc2)n1C`, for which the results for the pIC50 in assay [1] and in assay [2] were 7.29 and 9.05, respectively.

Regarding `Cc1nc(NC(=O)c2ccc(C(=N)N)cc2)sc1CCC(=O)O`, the pIC50 was 7.22 in assay [1] and 9.24 in assay [2].

Turning to `Cn1c2c(s/c1=N\C(=O)c1ccc(C(=N)N)cc1)C(=O)N(CCC(=O)O)C2`, the pIC50 in assay [1] was 7.17; in assay [2], 8.32.

As to `Cc1nc(N(C)C(=O)c2ccc(C(=N)N)cc2)sc1CCC(=O)O`, in assay [2], the pIC50 is 9.00.

With `CCn1c(C)c(C(=O)NCCC(=O)O)s/c1=N\C(=O)c1ccc(C(=N)N)cc1`, the negative logarithm of the IC50 (pIC50) in assay [2] was 9.92.

In the case of `N=C(N)c1ccc(C(=O)Nc2cccc(CCC(=O)O)c2)cc1`, the pIC50 in assay [1] was 6.98; in assay [2] it was 9.26.
